Source: patent US20190059381A1, “METHOD FOR CONTROLLING PESTS OF SOYBEAN, CORN, AND COTTON PLANTS” (BASF SE, priority 2016, published 2019)
Where two headings read alike, the source gives them in different places.

System: Brown Stink Bug (Euschistus heros)
Assay: Action on Brown Stink Bug (Euschistus heros) on sprayed soybean seedlings
Format: in vivo
Settings: for mortality at 1 ppm: 1 ppm a.i.; for mortality at 10 ppm: 10 ppm a.i.
Protocol: Action on Brown Stink Bug (Euschistus heros)
The active compound is dissolved at the desired concentration in a mixture of 1:1 (vol:vol) distilled water: acetone.
Soybean seedlings of Intacta® and BMX-Potencia with one pair of true leaves were sprayed with 2 ml solution using an airbrush. After dry, the plants in small pots were placed inside a transparent plastic cage and infested with 10 adults adult stage individuals. Treated cups were kept at about 25° C. Percent mortality was recorded after 3 and 7 days after application.

[1] = 72 h, BMX-POTENCIA soybean seedlings, 3 days after application, adults, read-out: mortality 3 DAA
[2] = 72 h, INTACTA soybean seedlings, 3 days after application, adults, read-out: mortality 3 DAA
[3] = 168 h, BMX-POTENCIA soybean seedlings, 7 days after application, adults, read-out: mortality 7 DAA
[4] = 168 h, BMX-POTENCIA soybean seedlings, 7 days after application, corrected according to Abbott, read-out: mortality (Abbott %) 7 DAA
[5] = 168 h, INTACTA soybean seedlings, 7 days after application, adults, read-out: mortality 7 DAA
[6] = 168 h, INTACTA soybean seedlings, 7 days after application, corrected according to Abbott, read-out: mortality (Abbott %) 7 DAA

SMILES: CCN1OC[C@@H](NC(=O)c2ccc(C3=NOC(c4cc(Cl)cc(Cl)c4)(C(F)(F)F)C3)cc2C)C1=O (stereo partly drawn) [Compound I.1]
- mortality at 1 ppm [1]: 7.5%
- mortality at 10 ppm [1]: 17.5%
- mortality at 1 ppm [2]: 12.5%
- mortality at 10 ppm [2]: 17.5%
- mortality at 1 ppm [3]: 50%
- mortality at 1 ppm [4]: 42.9%
- mortality at 10 ppm [3]: 82.5%
- mortality at 10 ppm [4]: 80%
- mortality at 1 ppm [5]: 57.5%
- mortality at 1 ppm [6]: 50%
- mortality at 10 ppm [5]: 85%
- mortality at 10 ppm [6]: 82.4%
